# Reference: article PMC2843403 (Bioorganic & medicinal chemistry, 2010)
# Experiments:
# [1] = target: T1, PKCδ C1B (Mus musculus, UniProt P28867); test: Fluorescence quenching binding to PKCδ C1B; details: fit of fluorescence quenching of PKCδ C1B (2 μM), Fig. 3
# Target sequence in this assay (P28867 231-280): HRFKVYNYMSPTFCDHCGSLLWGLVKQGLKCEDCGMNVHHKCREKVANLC
# [2] = target: T1, PKCδ C1B; test: Emission maximum of ligand in presence of PKCδ C1B; type: binding; details: buffer versus presence of C1B subdomain (590 to 560 nm)
# Target sequence in this assay (P28867 231-280 limits assumed): as the sequence (P28867 231-280) above
# [3] = Solubility; type: physicochemical
Hill coefficient [1],Blue shift of emission maximum [2] [nm],Solubility in water [3],SMILES
2,30,–,"CCCCCCCCCCCCCCCCOc1ccc(/C=C/C(O)=C/C(=O)/C=C/c2ccc(O)c(OC)c2)cc1OC [Compound 4, (1E, 4Z, 6E)-7-(4-(hexadecyloxy)-3-methoxyphenyl)-5-hydroxy-1-(4-hydroxy-3-methoxyphenyl)hepta-1,4,6-trien-3-one]"
1.6,–,poorly soluble,"COc1cc(/C=C/C(=O)CC(=O)/C=C/c2ccc(O)c(OC)c2)ccc1O [Compound 1, Curcumin]"

SMILES,Hill coefficient [1],Blue shift of emission maximum [2] [nm],Solubility in water [3]
"CCCCCCCCCCCCCC(=O)O[C@@H]1[C@@H](C)[C@@]2(O)[C@@H](C=C(CO)C[C@]3(O)C(=O)C(C)=C[C@@H]23)[C@@H]2C(C)(C)[C@]12OC(C)=O [TPA, 12-O-tetradecanoylphorbol-13-acetate, reference compound]",1.8,–,–
